A word on the inhibition: it is the relative decrease from the control value, in per cent.

Data set [1] concerns interleukin-1β (IL-1β). In words: IL-1β released by LPS-stimulated hPBMCs (ELISA). Format: cell-based, human. As for the experimental part: (§1) TNF-α production by lipopolysaccharides (LPS) in hPBMCs was measured according to the method described by Jansky, L. et al (Physiol. Res. 52: 593-598, (2003)). Blood was collected from healthy donors into Ethylene diamine tetra acetic acid Potassium salt (Potassium EDTA) vacutainer tubes (BD vacutainer). The PBMCs were isolated using gradient centrifugation in Histopaque-1077 solution (Sigma). Isolated PBMCs were suspended in Roswell Park Memorial Institute (RPMI) 1640 culture medium (Gibco BRL, Pasley, UK) containing 10% fetal bovine serum (FBS) (Hyclone, Utah, USA), 100 U/ml penicillin (Sigma Chemical Co. St Louis, Mo.) and 100 μg/ml streptomycin (Sigma Chemical Co. St Louis, Mo.). The cell concentration was adjusted to 1×10^6 cells/ml. The viability as determined by trypan blue dye exclusion was uniformly ≧98%. The cell suspension (100 μl) was added to the wells of a 96-well culture plate. […] Percent cytotoxicity of the test compound compared to control is evaluated.
The effect of the plant extract on the proinflammatory cytokines: interleukin-1β (IL-1β), interleukin-6 (IL-6) and interleukin-8 (IL-8) was measured using the supernatants generated in the primary screening assay. […]
Background: In an ELISA, binding on a coated surface is turned into a signal by an enzyme label.

Data set [2] concerns TNF-α. Kind of data set: LPS-induced TNF-α production in hPBMCs (primary screening, ELISA). In kind it is cell-based, human. The note with it: LPS-stimulated hPBMCs. The method, then:
TNF-α production by lipopolysaccharides (LPS) in hPBMCs was measured according to the method described by Jansky, L. et al (Physiol. Res. 52: 593-598, (2003)). Blood was collected from healthy donors into Ethylene diamine tetra acetic acid Potassium salt (Potassium EDTA) vacutainer tubes (BD vacutainer). The PBMCs were isolated using gradient centrifugation in Histopaque-1077 solution (Sigma). Isolated PBMCs were suspended in Roswell Park Memorial Institute (RPMI) 1640 culture medium (Gibco BRL, Pasley, UK) containing 10% fetal bovine serum (FBS) (Hyclone, Utah, USA), 100 U/ml penicillin (Sigma Chemical Co. St Louis, Mo.) and 100 μg/ml streptomycin (Sigma Chemical Co. St Louis, Mo.). The cell concentration was adjusted to 1×10^6 cells/ml. The viability as determined by trypan blue dye exclusion was uniformly ≧98%. The cell suspension (100 μl) was added to the wells of a 96-well culture plate. Following cell plating, 79 μl of the culture medium and 1 μl of eight different concentrations of the test compounds (final concentration 0.03, 0.1, 0.3, 1, 3, 10, 30, 100 μg/ml) dissolved in dimethylsulfoxide, (DMSO) Sigma, Mo., USA) were added to the cells. The final concentration of DMSO was adjusted to 0.5%. The vehicle (0.5% DMSO) was used as control. Rolipram (100, 300 μM) was used as a standard. The plates were incubated for 30 min at 37° C. in an atmosphere of 5% carbon dioxide (CO2). Finally, 20 μl (10 μg/ml) per well of LPS, (Escherchia coli 0127:B8, Sigma Chemical Co., St. Louis, Mo.) was added, for a final concentration of 1 μg/ml. The plates were incubated at 37° C. for 5 h in an atmosphere of 5% carbon dioxide (CO2). To assess the cytotoxic effect of the plant extracts, the cellular viability test was performed using 3-(4,5-dimethylthiazol-2-yl)-5-(3-carboxymethoxyphenyl)-2-(4-sulfonyl)-2H-tetrazolium) (MTS) reagent after 5 h of incubation. Supernatants were harvested and assayed for TNF-α by ELISA as described by the manufacturer (OptiElA ELISA sets, BD Biosciences, Pharmingen). […] Percent cytotoxicity of the test compound compared to control is evaluated.

The test system of data set [3] is human peripheral blood mononuclear cells. Kind of data set: Cellular viability test (MTS) in hPBMCs. In kind it is cell-based. As for the experimental part:
as §1, with “plate. Following cell plating, 79 μl of the culture medium and 1 μl of eight different concentrations of the test compounds (final concentration 0.03, 0.1, 0.3, 1, 3, 10, 30, 100 μg/ml) dissolved in dimethylsulfoxide, (DMSO) Sigma, Mo., USA) were added to the cells. The final concentration of DMSO was adjusted to 0.5%. The vehicle (0.5% DMSO) was used as control. Rolipram (100, 300 μM) was used as a standard.” for “plate.”

Each structure is given as a SMILES string. Converted amounts (≈) assume the structure as drawn.

As for `CC1=CCCC2C1(C)CCC(C)C2(C)CCC1=CC(=O)OC1O` (stereo not drawn) [Compound 1, 16-hydroxycleroda-3,13(14)-dien-15,16-olide], the “IC50 against IL-1” value in data set [1] amounted to 0.4 µg/mL (≈ 1.26 µM). For the same molecule, the “IC50, TNF-α inhibition” value in data set [2] is 5.9 µg/mL (≈ 18.5 µM).
As to `COc1ccc(C2CNC(=O)C2)cc1OC1CCCC1` (stereo not drawn) [Rolipram], the “% Toxicity 5 h” value in data set [3] (100 μM) stood at 2%; in data set [3] (300 μM) it was 10%. Moreover, the inhibition at 100 µM in data set [2] (Homo sapiens, 100 μM, read-out: % Inhibition of TNF-α release) turned out to be 100%. Besides, the inhibition at 300 µM in data set [2] (Homo sapiens, 300 μM, read-out: % Inhibition of TNF-α release) is 100%.

Values taken from patent US7862837B2, “Herbal composition” (Piramal Life Sciences Limited, priority 2006, dated 2011).
